Results: patent US20200345733A1, “Microbicidal Pyrimidine or Triazine Containing Compounds” (Janssen Sciences Ireland UC, priority 2002, published 2020)

Assay: White rabbit vaginal irritation and toxicity study (10 days)
Assay type: in vivo
Settings: female rabbits, 10 days after application; animals with finding
Description: Gel formulations of the compound B at different concentrations were used to study the exclusion of any irritation in a Rabbit Vaingal Irritation test. 10 days after the application of the gel formulations onto 6 different rabbit groups, vaginal and cervical epithelium were carefully examined by a pathologist macroscopically and histologically. The following scores were determined.

Nonoxynol-9 [Nonoxynol-9, 4%]
Cervical examination: Epithelial loss and atrophy, Marked: 3
Cervical examination: Epithelial loss and atrophy, Slight: 1
Cervical examination: Epithelial loss and atrophy, Total: 4a
Cervical examination: Luminal Inflammatory cells, Present: 4
Cervical examination: Luminal Inflammatory cells, Total: 4a
Vaginal examination: Epithelial inflammatory infiltrate, Minimal: 3
Vaginal examination: Epithelial inflammatory infiltrate, Slight: 2
Vaginal examination: Epithelial inflammatory infiltrate, Total: 5a
Vaginal examination: Epithelial loss and atrophy, Marked: 2
Vaginal examination: Epithelial loss and atrophy, Severe: 3
Vaginal examination: Epithelial loss and atrophy, Total: 5b
